Literature values as cited in patent US7255813B2, “NADH/NADPH-containing compound” (Nutropia Ernahrungsmedizinische Forschungs GmbH, priority 2002, dated 2007).

Conditions: versus synthetic tocopherols

Q: With tocotrienol as the substance, how does the “antioxidative potential, times higher than that of synthetic tocopherols” value read?
A: 50 to 1000 times
